From publication PMC8523698, “Preclinical characterization of an intravenous coronavirus 3CL protease inhibitor for the potential treatment of COVID19” (Nature Communications, 2021)
Several values for one entry are separate records, joined by “and”; a condition that tells them apart may be missing. Equal values may be shown once.

Tested on: HCoV-229E
Assay: Viral CPE assay in MRC-5 cells (CellTiter Glo)
Assay type: cell-based

## COc1cccc2[nH]c(C(=O)N[C@@H](CC(C)C)C(=O)N[C@@H](C[C@@H]3CCNC3=O)C(=O)CO)cc12 [PF-00835231-00]
0.000938825 uM, minus efflux inhibitor, EC50 run 17-Apr-2020
  % Well Effect: -3.33% and -1.20%
0.000938825 uM, minus efflux inhibitor, EC50 run 24-Apr-2020
  % Well Effect: 15.19% and 11.15%
0.000949267 uM, minus efflux inhibitor, EC50 run 11-Apr-2020
  % Well Effect: 5.04% and 4.22% and -1.30% and -1.77%
0.00297326 uM, minus efflux inhibitor, EC50 run 17-Apr-2020
  % Well Effect: -5.19% and 4.25%
0.00297326 uM, minus efflux inhibitor, EC50 run 24-Apr-2020
  % Well Effect: 5.52% and -0.60%
0.00300158 uM, minus efflux inhibitor, EC50 run 11-Apr-2020
  % Well Effect: 4.34% and 3.84% and 1.15% and -4.56%
0.007813 uM, minus efflux inhibitor, EC50 run 30-Apr-2020
  % Well Effect: 0.98% and 0.83%
0.00941631 uM, minus efflux inhibitor, EC50 run 17-Apr-2020
  % Well Effect: 1.75% and 4.31%
0.0298215 uM, minus efflux inhibitor, EC50 run 17-Apr-2020
  % Well Effect: 23.90% and 29.75%
0.0298215 uM, minus efflux inhibitor, EC50 run 24-Apr-2020
  % Well Effect: -2.80% and 5.98%
0.0300105 uM, minus efflux inhibitor, EC50 run 11-Apr-2020
  % Well Effect: 22.27% and 25.51% and 18.77% and 17.89%
0.03125 uM, minus efflux inhibitor, EC50 run 30-Apr-2020
  % Well Effect: 10.60% and 5.67%
0.0625 uM, minus efflux inhibitor, EC50 run 30-Apr-2020
  % Well Effect: 34.90% and 38.53%
0.0944446 uM, minus efflux inhibitor, EC50 run 17-Apr-2020
  % Well Effect: 86.84% and 95.70%
0.0944446 uM, minus efflux inhibitor, EC50 run 24-Apr-2020
  % Well Effect: 19.60% and 23.25%
0.0948933 uM, minus efflux inhibitor, EC50 run 11-Apr-2020
  % Well Effect: 74.74% and 86.04% and 87.19% and 85.97%
0.09491 uM, minus efflux inhibitor, EC50 run 3-Apr-2020
  % Well Effect: 60.58% and 66.48% and 51.57% and 67.27%
0.299106 uM, minus efflux inhibitor, EC50 run 17-Apr-2020
  % Well Effect: 107.11% and 115.95%
0.299106 uM, minus efflux inhibitor, EC50 run 24-Apr-2020
  % Well Effect: 59.17% and 71.11%
0.300053 uM, minus efflux inhibitor, EC50 run 11-Apr-2020
  % Well Effect: 109.88% and 116.26% and 114.19% and 115.61%
0.300105 uM, minus efflux inhibitor, EC50 run 3-Apr-2020
  % Well Effect: 99.66% and 103.56% and 105.08% and 101.55%
0.5 uM, minus efflux inhibitor, EC50 run 30-Apr-2020
  % Well Effect: 102.45% and 101.06%
0.947269 uM, minus efflux inhibitor, EC50 run 17-Apr-2020
  % Well Effect: 102.69% and 111.34%
0.947269 uM, minus efflux inhibitor, EC50 run 24-Apr-2020
  % Well Effect: 73.36% and 89.87%
0.948767 uM, minus efflux inhibitor, EC50 run 11-Apr-2020
  % Well Effect: 109.36% and 109.78% and 108.04% and 112.87%
0.948933 uM, minus efflux inhibitor, EC50 run 3-Apr-2020
  % Well Effect: 100.40% and 104.08% and 100.39% and 101.88%
1 uM, minus efflux inhibitor, EC50 run 30-Apr-2020
  % Well Effect: 105.73% and 102.25%
3 uM, minus efflux inhibitor, EC50 run 11-Apr-2020
  % Well Effect: 107.90% and 109.07% and 108.64% and 109.54%
3 uM, minus efflux inhibitor, EC50 run 17-Apr-2020
  % Well Effect: 101.53% and 109.98%
3 uM, minus efflux inhibitor, EC50 run 24-Apr-2020
  % Well Effect: 75.89% and 83.80%
3 uM, plus 0.5 uM efflux inhibitor, EC50 run 22-may-2020
  % Well Effect: 87.68%
3 uM, plus 0.5 uM efflux inhibitor, EC50 run 24-Apr-2020
  % Well Effect: 59.97%
3.00053 uM, minus efflux inhibitor, EC50 run 3-Apr-2020
  % Well Effect: 99.82% and 106.83% and 102.14% and 104.18%
9.48767 uM, minus efflux inhibitor, EC50 run 3-Apr-2020
  % Well Effect: 101.96% and 104.70% and 102.25% and 105.36%
30 uM, minus efflux inhibitor, EC50 run 3-Apr-2020
  % Well Effect: 102.99% and 107.66% and 105.96% and 105.84%
